Assay results published in EPA's ToxRefDB 2.

Key:
primate = conditions: Sub-acute repeat dose toxicity, Oral, Gavage/Intubation, dose end: 14 day, group: systemic
dog = conditions: Subchronic oral toxicity in nonrodent, beagle, Gavage/Intubation, dose end: 91 day, group: systemic, systemic / in life observation / clinical signs / emesis + systemic / organ weight / liver / absolute + systemic / pathology microscopic / …
rat [1] = conditions: Sub-acute repeat dose toxicity, Oral, Gavage/Intubation, dose end: 12 day
rat [2] = conditions: Fertility (Segment I), Oral, Gavage/Intubation, dose end: 1 generation, group: parental
rat [3] = conditions: Prenatal developmental toxicity study, Oral, Gavage/Intubation, dose end: 18 GD
rat [4] = conditions: Chronic toxicity, Oral, Gavage/Intubation, dose end: 182 day, group: systemic
rat [5] = conditions: Sub-acute repeat dose toxicity, Oral, Gavage/Intubation, dose end: 36 day
[6] = systemic / hematology / erythrocyte (rbc) count differential / erythrocyte (rbc) + systemic / hematology / hematocrit (hct) / hematocrit (…
[7] = systemic / in life observation / body weight / body weight + systemic / in life observation / clinical signs / [other] + systemic / in life …
[8] = group: maternal, reproductive / offspring survival early / litter size / litter size + reproductive / reproductive performance / postimplantation loss / …
[9] = group: systemic, systemic / in life observation / body weight / body weight gain + systemic / in life observation / clinical signs / emaciation + systemic / …
[10] = systemic / in life observation / body weight / body weight + systemic / in life observation / food consumption / food consumption
[11] = group: developmental, developmental / developmental malformation / bone / delayed ossification + developmental / developmental malformation / bone / [other] + …
[12] = group: maternal, systemic / in life observation / body weight / body weight gain + systemic / in life observation / clinical signs / abnormal feces + …
[13] = systemic / clinical chemistry / albumin / albumin + systemic / clinical chemistry / calcium / calcium + systemic / clinical chemistry / …
[14] = systemic / organ weight / kidney / absolute + systemic / pathology microscopic / intestine small / erosion
[15] = group: maternal, reproductive / offspring survival early / dead fetuses / dead fetuses + reproductive / offspring survival early / litter viability other / …
[16] = group: maternal, reproductive / offspring survival early / dead fetuses / dead fetuses + reproductive / reproductive performance / gestational length / …
[17] = group: systemic, systemic / in life observation / body weight / body weight gain + systemic / in life observation / body weight / offspring (pup) weight + …
[18] = group: systemic, systemic / in life observation / clinical signs / [other] + systemic / in life observation / clinical signs / body cold to touch + systemic…

What does the source list for CC(C)(C)c1cc(/C=C2\SC(N)=NC2=O)cc(C(C)(C)C)c1O.CS(=O)(=O)O [Darbufelone mesylate]?
LOAEL (primate; [6]): > 1000 mg/kg/day; NOAEL (primate; [6]): ≥ 1000 mg/kg/day; LEL (primate; [7]): 100 mg/kg/day; NEL (primate; [7]): < 100 mg/kg/day; LEL (dog): 2 mg/kg/day; LOAEL (dog): > 10 mg/kg/day; NEL (dog): < 2 mg/kg/day; NOAEL (dog): ≥ 10 mg/kg/day; LEL (rat [1]; [8]): 75 mg/kg/day; LOAEL (rat [1]; [8]): > 75 mg/kg/day; NEL (rat [1]; [8]): 50 mg/kg/day; NOAEL (rat [1]; [8]): ≥ 75 mg/kg/day; LOAEL (rat [1]; [9]): > 75 mg/kg/day; NEL (rat [1]; [9]): 10 mg/kg/day; NOAEL (rat [1]; [9]): ≥ 75 mg/kg/day; LEL (rat [2]; systemic / in life observation / body weight / body weight): 75 mg/kg/day; LOAEL (rat [2]; [10]): > 100 mg/kg/day; NEL (rat [2]; [10]): 35 mg/kg/day; NOAEL (rat [2]; [10]): ≥ 100 mg/kg/day; LOAEL (rat [3]; [11]): > 75 mg/kg/day; NOAEL (rat [3]; [11]): ≥ 75 mg/kg/day; LOAEL (rat [3]; [12]): > 75 mg/kg/day; NOAEL (rat [3]; [12]): ≥ 75 mg/kg/day; LOAEL (rat [4]; [13]): > 75 mg/kg/day; NOAEL (rat [4]; [13]): ≥ 75 mg/kg/day; LEL (rat [4]; [14]): 5 mg/kg/day; NEL (rat [4]; [14]): < 5 mg/kg/day; LOAEL (rat [5]; [15]): > 25 mg/kg/day; NOAEL (rat [5]; [15]): ≥ 25 mg/kg/day; LEL (rat [5]; [16]): 5 mg/kg/day; NEL (rat [5]; [16]): < 5 mg/kg/day; LOAEL (rat [5]; [17]): > 25 mg/kg/day; NOAEL (rat [5]; [17]): ≥ 25 mg/kg/day; LEL (rat [5]; [18]): 5 mg/kg/day; NEL (rat [5]; [18]): < 5 mg/kg/day
